Assay results as given in DBAASP.
Values after ≈ are worked out from the molar mass of the structure shown.

Experiments:
Test in all cases: ≥ marks a high value that may be exact or a test limit, other limits are often not marked, values filed in µg/mL are converted to µM
Bacillus subtilis = test system: Bacillus subtilis
Escherichia coli ML-35p = test system: Escherichia coli ML-35p
[1] = test system: Candida albicans ATCC 2002
[2] = test system: Staphylococcus aureus ATCC 43300
[3] = test system: Staphylococcus aureus ATCC 25923
[4] = test system: Batrachochytrium dendrobatidis JEL-197
[5] = test system: Escherichia coli ATCC 25726
[6] = test system: Candida albicans ATCC 90028
[7] = test system: Staphylococcus aureus ATCC 29213
[8] = test system: Pseudomonas aeruginosa ATCC 27853
[9] = test system: Salmonella enterica subsp. enterica serovar Typhimurium C77-31
[10] = test system: Bacillus subtilis CMCC 63501
[11] = test system: Staphylococcus epidermidis ATCC 12228
[12] = test system: Escherichia coli ATCC 25922
[13] = test system: Salmonella enterica subsp. enterica serovar Pullorum C79-13
[14] = test system: Enterococcus faecalis ATCC 29212
Bacillus cereus = test system: Bacillus cereus
Escherichia coli = test system: Escherichia coli
Streptococcus uberis = test system: Streptococcus uberis
[15] = test system: Staphylococcus epidermidis
Micrococcus luteus = test system: Micrococcus luteus
Leuconostoc lactis = test system: Leuconostoc lactis
Staphylococcus aureus = test system: Staphylococcus aureus
Listeria innocua = test system: Listeria innocua
Pasteurella multocida = test system: Pasteurella multocida
Escherichia coli O111 = test system: Escherichia coli O111

Row | MIC [3] | MIC (Bacillus cereus) | MIC (Escherichia coli) | MIC (Streptococcus uberis) | MIC [15] | MIC (Micrococcus luteus) | MIC (Leuconostoc lactis) | MIC (Staphylococcus aureus) | MIC (Listeria innocua) | MIC (Pasteurella multocida) | Structure (SMILES) | also measured
1 | 0.919 µM (≈ 2.34 µg/mL) | – | – | – | – | – | – | – | – | – | CC[C@H](C)[C@H](NC(=O)CNC(=O)[C@H](C)NC(=O)[C@H](C)NC(=O)[C@@H](NC(=O)[C@H](CCCCN)NC(=O)[C@H](CC(C)C)NC(=O)[C@@H](NC(=O)[C@@H]1CCCN1C(=O)CNC(=O)[C@@H](NC(=O)[C@@H](N)Cc1ccccc1)[C@@H](C)CC)C(C)C)[C@@H](C)CC)C(=O)N[C@@H](CC(C)C)C(=O)N1CCC[C@H]1C(=O)N[C@H](C(=O)N[C@@H](C)C(=O)N[C@H](C(=O)N[C@H]1CSSC[C@@H](C(=O)O)NC(=O)[C@H](CCCCN)NC(=O)[C@H](CCCCN)NC(=O)[C@H](Cc2ccccc2)NC(=O)[C@H]([C@@H](C)CC)NC(=O)[C@H](CCCCN)NC1=O)[C@@H](C)CC)[C@@H](C)O [FIGPVLKIAAGILPTAICKIFKKC] | MIC (Bacillus subtilis): 1.84 µM (≈ 4.69 µg/mL); MIC (Escherichia coli ML-35p): 7.37 µM (≈ 18.7 µg/mL); MIC [1]: 1.84 µM (≈ 4.69 µg/mL); MIC [2]: 3.69 µM (≈ 9.37 µg/mL)
2 | 6 µM (≈ 15.3 µg/mL) | – | – | – | – | – | – | – | – | – | CC[C@H](C)[C@@H]1NC(=O)[C@H](CC(C)C)NC(=O)[C@@H](NC(=O)[C@@H](NC(=O)[C@H](CC(C)C)NC(=O)[C@H](CCCCN)NC(=O)[C@@H]2CCCN2C(=O)[C@@H](NC(=O)[C@H](CCSC)NC(=O)[C@H](CO)NC(=O)[C@H](C)NC(=O)[C@H](C)NC(=O)[C@H](CC(C)C)NC(=O)CNC(=O)[C@H](C)NC(=O)[C@H](CC(C)C)NC(=O)[C@H](CCSC)NC(=O)[C@@H]2CCCN2C(=O)[C@H](CC(C)C)NC(=O)[C@@H](N)Cc2ccccc2)C(C)C)C(C)C)CSSC[C@@H](C(=O)O)NC(=O)[C@H](CCCCN)NC(=O)[C@H](CCCCN)NC(=O)[C@H]([C@@H](C)O)NC1=O [FLPMLAGLAASMVPKLVCLITKKC] | MIC [4]: 12.5 µM (≈ 31.8 µg/mL); MIC [5]: ≥ 50 µM; MIC [6]: 12 µM (≈ 30.6 µg/mL)
3 | 25 µM (≈ 63.8 µg/mL) | – | – | – | – | – | – | – | – | – | CC[C@H](C)[C@H](NC(=O)[C@H](CO)NC(=O)[C@@H]1CCCN1C(=O)[C@@H](NC(=O)[C@H](CC(C)C)NC(=O)CNC(=O)[C@H](C)NC(=O)[C@H](CC(C)C)NC(=O)[C@@H](NC(=O)[C@@H]1CCCN1C(=O)[C@H](CC(C)C)NC(=O)[C@@H](N)Cc1ccccc1)C(C)C)[C@@H](C)O)C(=O)N[C@H](C(=O)N1CCC[C@H]1C(=O)N[C@@H](CCCCN)C(=O)N[C@@H](CC(C)C)C(=O)N[C@H](C(=O)N[C@H]1CSSC[C@@H](C(=O)O)NC(=O)[C@H](CCCCN)NC(=O)[C@H](CCCCN)NC(=O)[C@H]([C@@H](C)O)NC(=O)[C@H](CC(C)C)NC(=O)[C@H](CC(C)C)NC1=O)C(C)C)C(C)C [FLPVLAGLTPSIVPKLVCLLTKKC] | MIC [4]: 12.5 µM (≈ 31.9 µg/mL); MIC [5]: ≥ 100 µM; MIC [6]: 25 µM (≈ 63.8 µg/mL)
4 | – | – | – | – | – | – | – | – | – | – | NC(=O)[C@H](Cc1ccccc1)NC(=O)[C@H](CCCN=C(N)N)NC(=O)[C@H](Cc1ccccc1)NC(=O)[C@H](CCCN=C(N)N)NC(=O)[C@H](CS)NC(=O)[C@H](Cc1ccccc1)NC(=O)[C@H](CCCN=C(N)N)NC(=O)[C@H](CCCN=C(N)N)NC(=O)[C@H](CCCN=C(N)N)NC(=O)[C@H](CS)NC(=O)[C@H](CCCN=C(N)N)NC(=O)[C@H](Cc1ccccc1)NC(=O)[C@H](CCCN=C(N)N)NC(=O)[C@@H](N)Cc1ccccc1 [FRFRCRRRFCRFRF] | MIC [7]: 2 µM (≈ 4.11 µg/mL); MIC [8]: 4 µM (≈ 8.21 µg/mL); MIC [9]: 2 µM (≈ 4.11 µg/mL); MIC [10]: 2 µM (≈ 4.11 µg/mL); MIC [11]: 2 µM (≈ 4.11 µg/mL); MIC [12]: 1 µM (≈ 2.05 µg/mL); MIC [13]: 1 µM (≈ 2.05 µg/mL); MIC [14]: 4 µM (≈ 8.21 µg/mL)
5 | – | 14.2 µM (≈ 25 µg/mL) | > 56.9 µM | 28.4 µM (≈ 50 µg/mL) | 6.83 µM (≈ 12 µg/mL) | 28.4 µM (≈ 50 µg/mL) | 1.71 µM (≈ 3 µg/mL) | 56.9 µM (≈ 99.9 µg/mL) | 28.4 µM (≈ 50 µg/mL) | ≥ 56.9 µM | CC[C@H](C)[C@H](NC(=O)[C@@H](NC(=O)[C@H](CO)NC(=O)[C@H](C)NC(=O)[C@@H](NC(=O)[C@H](CCCCN)NC(=O)[C@H](CCCCN)NC(=O)[C@@H](NC(=O)[C@@H](NC(=O)[C@H](CC(=O)O)NC(=O)[C@H](Cc1ccccc1)NC(=O)[C@H](CC(C)C)NC(=O)CN)C(C)C)[C@@H](C)CC)C(C)C)C(C)C)C(=O)N[C@@H](CCCCN)C(=O)N[C@@H](CCCCN)C(=O)N[C@@H](CC(C)C)C(N)=O [GLFDVIKKVASVIKKL] | –
6 | – | ≥ 47.1 µM | > 47.1 µM | 23.5 µM (≈ 50 µg/mL) | 23.5 µM (≈ 50 µg/mL) | 23.5 µM (≈ 50 µg/mL) | 2.82 µM (≈ 6 µg/mL) | 23.5 µM (≈ 50 µg/mL) | ≥ 47.1 µM | ≥ 47.1 µM | CC[C@H](C)[C@H](NC(=O)[C@H](C)NC(=O)[C@@H]1CCCN1C(=O)[C@H](CC(C)C)NC(=O)[C@@H](NC(=O)[C@H](Cc1cnc[nH]1)NC(=O)[C@H](CO)NC(=O)[C@@H](NC(=O)[C@@H](NC(=O)[C@H](CO)NC(=O)CNC(=O)[C@H](CC(C)C)NC(=O)[C@H](CC(C)C)NC(=O)CNC(=O)[C@H](CC(C)C)NC(=O)[C@H](CC(C)C)NC(=O)CN)C(C)C)C(C)C)C(C)C)C(=O)N[C@H](C(=O)N[C@@H](CCC(N)=O)C(=O)N[C@@H](Cc1cnc[nH]1)C(=O)N[C@@H](CC(C)C)C(N)=O)[C@@H](C)O [GLLGLLGSVVSHVLPAITQHL] | –
7 | – | ≥ 41.8 µM | > 41.8 µM | ≥ 41.8 µM | ≥ 41.8 µM | ≥ 41.8 µM | ≥ 41.8 µM | > 41.8 µM | ≥ 41.8 µM | 10.4 µM (≈ 25 µg/mL) | CCC(C)[C@H](N=C(O)C(CO)N=C(O)[C@H](CO)N=C(O)[C@@H](N=C(O)C(CC(C)C)N=C(O)CN)C(C)C)C(O)=NCC(O)=N[C@@H](CCCNC(=N)N)C(O)=N[C@@H](C)C(O)=N[C@@H](CC(C)C)C(O)=NCC(O)=NCC(O)=N[C@@H](CC(C)C)C(O)=N[C@@H](CC(C)C)C(O)=N[C@@H](C)C(O)=NC(CC(=O)O)C(O)=NC(C(O)=N[C@@H](C(O)=N[C@H](CCCCN)C(O)=N[C@H](CO)C(O)=N[C@H](CCCCN)C(O)=NCC(O)=N[C@H](CCC(=N)O)C(=O)N1CCCC1C(O)=N[C@H](C)C(=O)O)C(C)C)C(C)C (some centres undefined) [GLVSSIGRALGGLLADVVKSKGQPA] | –
8 | – | ≥ 56.5 µM | > 56.5 µM | 28.2 µM (≈ 50 µg/mL) | ≥ 56.5 µM | ≥ 56.5 µM | 6.78 µM (≈ 12 µg/mL) | > 56.5 µM | ≥ 56.5 µM | ≥ 56.5 µM | CC[C@H](C)[C@H](NC(=O)[C@@H](NC(=O)CN)C(C)C)C(=O)N[C@@H](CC(=O)O)C(=O)N[C@@H](C)C(=O)N[C@@H](C)C(=O)N[C@@H](C)C(=O)N[C@@H](CCCCN)C(=O)N[C@H](C(=O)N[C@H](C(=O)N[C@@H](CC(N)=O)C(=O)N[C@H](C(=O)N[C@@H](CC(C)C)C(=O)N[C@@H](CCCCN)C(=O)N[C@@H](CC(N)=O)C(=O)N[C@@H](CC(C)C)C(=O)N[C@@H](Cc1ccccc1)C(N)=O)C(C)C)C(C)C)C(C)C [GVIDAAAKVVNVLKNLF] | –
9 | – | – | – | – | – | – | – | – | – | – | CC[C@H](C)[C@H](NC(=O)[C@H](CO)NC(=O)[C@@H]1CCCN1C(=O)[C@H](C)NC(=O)CNC(=O)[C@H](CC(C)C)NC(=O)[C@H](CCCCN)NC(=O)[C@H](CCCN=C(N)N)NC(=O)[C@H](CCSC)NC(=O)[C@H](CCCN=C(N)N)NC(=O)[C@H](CCCN=C(N)N)NC(=O)[C@H](CCC(N)=O)NC(=O)[C@@H](N)Cc1c[nH]c2ccccc12)C(=O)N[C@H](C(=O)O)[C@@H](C)O [WQRRMRKLGAPSIT] | MIC (Escherichia coli O111): ≥ 58.8 µM
10 | – | – | – | – | – | – | – | – | – | – | CC[C@H](C)[C@H](NC(=O)[C@H](CO)NC(=O)[C@@H]1CCCN1C(=O)[C@H](C)NC(=O)CNC(=O)[C@H](CC(C)C)NC(=O)[C@H](CCCN=C(N)N)NC(=O)[C@H](CCSC)NC(=O)[C@H](CCCN=C(N)N)NC(=O)[C@H](CCCN=C(N)N)NC(=O)[C@H](CCC(N)=O)NC(=O)[C@H](Cc1c[nH]c2ccccc12)NC(=O)[C@H](CCC(N)=O)NC(=O)[C@@H](N)Cc1ccc(O)cc1)C(=O)N[C@H](C(=O)O)[C@@H](C)O [YQWQRRMRLGAPSIT] | MIC (Escherichia coli O111): ≥ 322 µM
